Source: patent publication US20180148418A1, “AMIDO-SUBSTITUTED CYCLOHEXANE DERIVATIVES” (Bayer Pharma Aktiengesellschaft, priority 2015, published 2018)
pIC50: −log10 of the molar value.

Legend:
TNKS2 = target: T1, TNKS2 (Homo sapiens, UniProt Q9H2K2); experiment: TNKS2 Assay B (auto-parsylation, [3H]-NAD+ SPA); format: biochemical; settings: 6 nM TNKS2, auto-parsylation, over night at room temperature
T1 construct: purchased BPS Bioscience, San Diego, USA 80572 (TNKS2 Histone Ribosylation Assay Kit)
T1 sequence (Q9H2K2 1-1166): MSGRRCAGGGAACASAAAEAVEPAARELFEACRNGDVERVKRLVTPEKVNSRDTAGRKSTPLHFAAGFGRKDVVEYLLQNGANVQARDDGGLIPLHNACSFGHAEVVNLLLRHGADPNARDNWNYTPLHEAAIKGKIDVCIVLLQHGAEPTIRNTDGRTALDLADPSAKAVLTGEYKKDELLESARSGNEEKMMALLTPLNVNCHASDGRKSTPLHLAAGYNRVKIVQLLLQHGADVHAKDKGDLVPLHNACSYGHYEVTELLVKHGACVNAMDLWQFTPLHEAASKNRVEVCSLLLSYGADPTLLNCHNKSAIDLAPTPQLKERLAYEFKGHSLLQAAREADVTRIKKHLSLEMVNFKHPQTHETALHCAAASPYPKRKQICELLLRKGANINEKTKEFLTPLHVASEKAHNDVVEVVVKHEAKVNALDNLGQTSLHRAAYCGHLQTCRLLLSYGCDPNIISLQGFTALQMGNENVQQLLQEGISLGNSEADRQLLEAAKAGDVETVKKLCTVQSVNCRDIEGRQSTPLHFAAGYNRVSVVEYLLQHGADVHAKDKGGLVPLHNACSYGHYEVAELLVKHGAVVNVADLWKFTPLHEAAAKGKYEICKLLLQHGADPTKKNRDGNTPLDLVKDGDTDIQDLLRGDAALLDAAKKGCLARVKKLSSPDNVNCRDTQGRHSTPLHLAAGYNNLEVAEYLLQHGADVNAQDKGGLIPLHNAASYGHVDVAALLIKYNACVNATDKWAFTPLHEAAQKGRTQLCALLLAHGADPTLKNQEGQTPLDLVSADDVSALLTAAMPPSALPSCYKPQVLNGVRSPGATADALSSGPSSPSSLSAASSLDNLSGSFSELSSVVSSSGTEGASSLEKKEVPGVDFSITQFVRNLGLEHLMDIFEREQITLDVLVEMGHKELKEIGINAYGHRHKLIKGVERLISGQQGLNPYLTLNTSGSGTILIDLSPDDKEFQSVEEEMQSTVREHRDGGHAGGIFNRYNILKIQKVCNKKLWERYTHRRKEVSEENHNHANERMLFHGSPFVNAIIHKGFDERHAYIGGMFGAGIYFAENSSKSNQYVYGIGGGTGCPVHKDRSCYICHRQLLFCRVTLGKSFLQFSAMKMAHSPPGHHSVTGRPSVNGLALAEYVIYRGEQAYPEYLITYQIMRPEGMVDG

[1] = tested on: wildtype Wnt signaling cascade; experiment: HEK293 TOP assay (Super TopFlash luciferase reporter, Wnt-3a stimulated); format: cell-based; settings: Homo sapiens, HEK293 TOP reporter cells, Wnt3a at EC50, 16 hours
Procedure, shortened: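 HEK293 cells stably carrying Super TopFlash (TOP) run in parallel with FOP cells, 10000/well plated 24 h ahead, stimulated with recombinant human Wnt-3a. Compounds tested 50 μM to 15 nM in 3.16-fold steps in CAFTY buffer pH 7.4 with 2 mM Ca^2+ and 0.01% BSA; luciferase read-out.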

[2] = tested on: HEK293 cells cotransfected with the FOP control vector; experiment: HEK293 FOP assay (control reporter with non-functional TCF elements); format: cell-based; settings: Homo sapiens, 16 hours
Procedure, shortened: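 Stable HEK293 line carrying FOP control reporter (randomized non-functional TCF sites, with pcDNA3), Geneticin-selected, plated 24 h before assay. Stimulated with recombinant human Wnt-3a (2500-5 ng/ml) and compounds 50 μM–15 nM (3.16-fold steps) in CAFTY buffer pH 7.4 with 2 mM Ca2+, 0.01% BSA, run parallel to TOP line.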

Compound	pIC50 (TNKS2)	pIC50 ([1]; HEK293, 16 h)	pIC50 [2]	pIC50 [1]
CNC(=O)c1nc[nH]c1C(=O)N[C@H]1CC[C@@]2(CCCN(c3cc(F)c(F)cc3Cl)C2=O)CC1 [Example 317, N^5-[(trans)-2-(2-chloro-4,5-difluorophenyl)-1-oxo-2-azaspiro[5.5]undec-9-yl]-N^4-methyl-1H-imidazole-4,5-dicarboxamide]	8.06	8.85	≤ 6.30	–
CCNC(=O)c1nc[nH]c1C(=O)N[C@H]1CC[C@@]2(CCCN(c3cc(F)c(F)cc3Cl)C2=O)CC1 [Example 318, N^5-[(trans)-2-(2-chloro-4,5-difluorophenyl)-1-oxo-2-azaspiro[5.5]undec-9-yl]-N^4-ethyl-1H-imidazole-4,5-dicarboxamide]	8.06	8.70	≤ 6.30	–
CC(C)n1nc(C(=O)N[C@H]2CC[C@@]3(CCN(c4ccc(F)cc4Cl)C3=O)CC2)c2ccc(Br)cc21 [Example 319, 6-bromo-N-[(trans)-2-(2-chloro-4-fluorophenyl)-1-oxo-2-azaspiro[4.5]dec-8-yl]-1-isopropyl-1H-indazole-3-carboxamide]	< 5.00	–	≤ 4.30	≤ 4.30
NC(=O)c1nc[nH]c1C(=O)N[C@H]1CC[C@@]2(CCCN(c3cc(F)c(F)cc3Cl)C2=O)CC1 [Example 320, N^5-[(trans)-2-(2-chloro-4,5-difluorophenyl)-1-oxo-2-azaspiro[5.5]undec-9-yl]-1H-imidazole-4,5-dicarboxamide]	8.03	7.57	≤ 4.30	–
CC(C)NC(=O)c1nc[nH]c1C(=O)N[C@H]1CC[C@@]2(CCCN(c3cc(F)c(F)cc3Cl)C2=O)CC1 [Example 321, N^5-[(trans)-2-(2-chloro-4,5-difluorophenyl)-1-oxo-2-azaspiro[5.5]undec-9-yl]-N^4-(propan-2-yl)-1H-imidazole-4,5-dicarboxamide]	7.28	8.22	4.62	–
O=C(N[C@H]1CC[C@@]2(CCCN(c3cc(F)c(F)cc3Cl)C2=O)CC1)c1[nH]cnc1C(=O)N1CC(OC(F)F)C1 [Example 322, N-[(trans)-2-(2-chloro-4,5-difluorophenyl)-1-oxo-2-azaspiro[5.5]undec-9-yl]-4-{[3-(difluoromethoxy)azetidin-1-yl]carbonyl}-1H-imidazole-5-carboxamide]	7.92	8.85	4.68	–
O=C(N[C@H]1CC[C@@]2(CCCN(c3cc(F)c(F)cc3Cl)C2=O)CC1)c1[nH]cnc1C(=O)N1CCOCC1 [Example 323, N-[(trans)-2-(2-chloro-4,5-difluorophenyl)-1-oxo-2-azaspiro[5.5]undec-9-yl]-4-(morpholin-4-ylcarbonyl)-1H-imidazole-5-carboxamide]	6.03	7.01	≤ 4.30	–
O=C(NC1CC1)c1nc[nH]c1C(=O)N[C@H]1CC[C@@]2(CCCN(c3cc(F)c(F)cc3Cl)C2=O)CC1 [Example 324, N^5-[(trans)-2-(2-chloro-4,5-difluorophenyl)-1-oxo-2-azaspiro[5.5]undec-9-yl]-N^4-cyclopropyl-1H-imidazole-4,5-dicarboxamide]	7.72	8.52	≤ 6.30	–
O=C(N[C@H]1CC[C@@]2(CCCN(c3ccc(F)cc3Cl)C2=O)CC1)c1cnn2cccnc12 [Example 325, N-[(trans)-2-(2-chloro-4-fluorophenyl)-1-oxo-2-azaspiro[5.5]undec-9-yl]pyrazolo[1,5-a]pyrimidine-3-carboxamide]	7.00	7.64	≤ 4.30	–
O=C(N[C@H]1CC[C@@]2(CCCN(c3ccc(F)cc3Cl)C2=O)CC1)c1cnc2cccnn12 [Example 326, N-[(trans)-2-(2-chloro-4-fluorophenyl)-1-oxo-2-azaspiro[5.5]undec-9-yl]imidazo[1,2-b]pyridazine-3-carboxamide]	6.74	7.22	≤ 4.30	–
O=C(N[C@H]1CC[C@@]2(CCCN(c3ccc(F)cc3Cl)C2=O)CC1)c1[nH]cnc1C(=O)N1CC(F)C1 [Example 327, N-[(trans)-2-(2-chloro-4-fluorophenyl)-1-oxo-2-azaspiro[5.5]undec-9-yl]-4-[(3-fluoroazetidin-1-yl)carbonyl]-1H-imidazole-5-carboxamide]	7.54	8.15	4.51	–
O=C(NC1CC1)c1nc[nH]c1C(=O)N[C@H]1CC[C@@]2(CCCN(c3ccc(F)cc3Cl)C2=O)CC1 [Example 328, N^5-[(trans)-2-(2-chloro-4-fluorophenyl)-1-oxo-2-azaspiro[5.5]undec-9-yl]-N^4-cyclopropyl-1H-imidazole-4,5-dicarboxamide]	7.12	7.30	4.57	–
CC(C)NC(=O)c1nc[nH]c1C(=O)N[C@H]1CC[C@@]2(CCCN(c3ccc(F)cc3Cl)C2=O)CC1 [Example 329, N^5-[(trans)-2-(2-chloro-4-fluorophenyl)-1-oxo-2-azaspiro[5.5]undec-9-yl]-N^4-(propan-2-yl)-1H-imidazole-4,5-dicarboxamide]	6.80	6.59	4.40	–
O=C(N[C@H]1CC[C@@]2(CCN(c3ccc(F)cc3Cl)C2=O)CC1)c1cnn2ccc(C(F)F)nc12 [Example 330, N-[(trans)-2-(2-chloro-4-fluorophenyl)-1-oxo-2-azaspiro[4.5]dec-8-yl]-5-(difluoromethyl)pyrazolo[1,5-a]pyrimidine-3-carboxamide]	7.96	8.30	4.52	–
O=C(N[C@H]1CC[C@@]2(CCN(c3ccc(F)cc3Cl)C2=O)CC1)c1cnn2c(C(F)F)cc(C(F)F)nc12 [Example 331, N-[(trans)-2-(2-chloro-4-fluorophenyl)-1-oxo-2-azaspiro[4.5]dec-8-yl]-5,7-bis(difluoromethyl)pyrazolo[1,5-a]pyrimidine-3-carboxamide]	7.12	8.19	4.52	–
O=C(N[C@H]1CC[C@]2(CCN(c3ccc(F)cc3Cl)C2=O)CC1)c1c[nH]c2cccnc12 [Example 332, N-[(cis)-2-(2-chloro-4-fluorophenyl)-1-oxo-2-azaspiro[4.5]dec-8-yl]-1H-pyrrolo[3,2-b]pyridine-3-carboxamide]	5.33	6.24	4.46	–
Cc1cc(C(F)F)n2ncc(C(=O)N[C@H]3CC[C@]4(CCN(c5ccc(F)cc5Cl)C4=O)CC3)c2n1 [Example 333, N-[(cis)-2-(2-chloro-4-fluorophenyl)-1-oxo-2-azaspiro[4.5]dec-8-yl]-7-(difluoromethyl)-5-methylpyrazolo[1,5-a]pyrimidine-3-carboxamide]	6.17	7.26	4.52	–
Cc1ccn2ncc(C(=O)N[C@H]3CC[C@]4(CCN(c5ccc(F)cc5Cl)C4=O)CC3)c2n1 [Example 335, N-[(cis)-2-(2-chloro-4-fluorophenyl)-1-oxo-2-azaspiro[4.5]dec-8-yl]-5-methylpyrazolo[1,5-a]pyrimidine-3-carboxamide]	< 5.00	6.19	≤ 4.30	–
Cc1ccnc2c(C(=O)N[C@H]3CC[C@]4(CCN(c5ccc(F)cc5Cl)C4=O)CC3)cnn12 [Example 336, N-[(cis)-2-(2-chloro-4-fluorophenyl)-1-oxo-2-azaspiro[4.5]dec-8-yl]-7-methylpyrazolo[1,5-a]pyrimidine-3-carboxamide]	6.06	7.27	≤ 4.30	–
